Patent US12116421B2, “Peptide-based Dopa containing adhesive gels” (KING ABDULLAH UNIVERSITY OF SCIENCE AND TECHNOLOGY, priority 2020, dated 2024)
Where a SMILES comes first, the peptide text is derived from it. [ ]: non-standard residue; d: D form. Dopa = N[C@@H](Cc1ccc(O)c(O)c1)C(=O)O; Cha = N[C@@H](CC1CCCCC1)C(=O)O

Tests used:
[1] = test system: mouse myoblast cells (C2C12); test: Cytocompatibility of peptide nanogels, 3D culture, MTT and live/dead staining; format: cell-based
Protocol: In one embodiment, cytocompatibility of the peptide nanogels was evaluated using mouse myoblast cells (C2C12). After 24 hours of incubation, cell proliferation was tested with DoIIZK, IIZDoK, IIZKDo, IIZ(KDo)2 and IIZ(KDo)3 at a concentration of 3 mg/mL to evaluate biocompatibility. The MTT (3-(4,5-dimethylthiazol-2-yl)-2,5-diphenyltetrazolium bromide) assay was used in order to quantify the number of viable cells. In one embodiment, a standard curve for a known number of cells was also plotted. In one embodiment, the test results were compared to the positive control 2D culture. A positive indication of cytocompatibility would be the survival of the cells following incubation with the peptides. For comparison, peptides DoIIZK, IIZDoK, IIZKDo, IIZ(KDo)2 and IIZ(KDo)3 were tested as part of the study. The cytocompatibilty of all peptides tested was evaluated by quantifying the survival cells by visualising the live/dead cells using calcein AM and Ethidium bromide staining.
Poli-D Lysine (PDL) was used for 2D control. The scalebar in FIG. 35 is 200 μm. Cytocompatibility of all peptides was evaluated by quantifying the survival cells by visualising the live/dead cells using calcein AM and Ethidium homodimer staining. The live cells are stained green by calcein AM, while the dead cells are stained red by Ethidium homodimer.
For mouse myoblast cells (C2C12) culture expansion, C2C12 cells were cultured either in a T175 or T75 culture flask in complete DMEM media (10% FBS and 1% P/S). The cells were placed in a humidified incubator at 37° C., with 95% air and 5% CO2. Then they were subcultured using trypsin at approximately 80% confluence. Fresh culture media was added every 48 h to each well, after removing the previous media.
For 3D culture of mouse myoblast cells in peptide hydrogels and cell viability assay, C2C12 cells were encapsulated in peptide hydrogels in a 96-well plate.^61 Briefly, peptide solutions DopaIIZK, IIZDopaK, IIZKDopa (3 mg/mL) were added to 40 μL/well. Mouse myoblast cells (30,000 cells/well) that were re-suspended in 2×PBS were then, mixed gently with the peptide solutions. The gelation time was 1-3 min for all 5 peptides. Subsequently, the culture medium was added to the wells.
The viability of 3D cultured cells was assessed using the LIVE/DEAD Viability/Cytotoxicity Kit (ThermoFisher®, USA)^11. Calcein acetoxymethyl ester (Calcein-AM) is used to detect viable cells and ethidium homodimer-I (EthD-I) is used to detect dead cells. Briefly, staining with 2 μM of Calcein-AM and 4 μM of EthD-1 is performed after washing with Dulbecco's phosphate-buffered saline (D-PBS). After 30 minutes incubation, the staining solution was discarded, and 1×D-PBS was added to each well before imaging. Stained cells were imaged with an inverted confocal microscope (Zeiss® LSM 710 Inverted Confocal Microscope, Germany) or ZEISS® fluorescent microscope.

[2] = AFM force spectroscopy adhesion measurement in liquid; format: physicochemical; conditions: for reduction of adhesion force by addition of NaCl: NaCl versus MilliQ water
Protocol: In one embodiment, the peptides were dissolved in the proper solution at a concentration of 10 mg/mL. The peptide solutions were spotted on a freshly cleaved mica sheet and the measurement was performed in liquid.
In one embodiment, the adhesion properties of the Dopa peptides are influenced by the construct lysine-Dopa and by the position of the catechol moiety in the peptide sequence, as indicated by the AFM force spectroscopy results in liquid. In a typical force spectroscopy curve the probe is several times approached to the surface and retracted and for every cycle of retraction the maximum force of adhesion is recorded. The incorporation of a catechol moiety near a lysine would enhance adhesion to negatively charged surfaces. FIG. 28 illustrates the effect of lysine on adhesion to negatively charged surfaces. Therefore, probes and substrates that were manifesting negative charges on their surfaces, such as the silicon probe and the freshly cleaved mica substrate, are used in the AFM spectroscopy. The setup of probe and substrate is illustrated in FIG. 29.
The peptides dissolved in the proper solution at 13 mM concentration each, were spotted on a freshly cleaved mica sheet and the measurement was performed in liquid. Several force curves were recorded for different buffers. […] In FIG. 30, the inset image represents the maximum extension of each peptide dissolved in water, when manually pulled between two glass slides. Also in FIG. 30, the approach part of the curve contains the important information defined as “jump to contact”, while the retract part of the F-D curve contains the adhesion force value. […] Two controls were also introduced: namely the original peptide IIZK, and an alternative peptide IIFK. To better understand the influence of Dopa on the adhesion properties of the peptide, the original short peptide IIZK would make a perfect negative control. We also introduced as a control the IIFK peptide in order to understand the effect of IIZK itself on adhesion. In FIG. 32, statistical significance expressed as p<0.01.
AFM topography measurements were performed on a Dimension Icon SPM (Bruker®). The samples were prepared as follows: peptides were dissolved at 13 mM concentration in MilliQ® water; after 30 minutes, 20 μl of these solutions were dropped on freshly cleaved mica sheets and immediately dried with an N2 stream. Measurements were immediately performed in tapping mode in air by the use of an AFM probe AC_240TS_R3 (Olympus®) with nominal free oscillation at roughly 70 kHz and a nominal spring constant of 2 N/m. The probe was calibrated by contact-free method.^54 Free oscillation amplitude was set at 200 mV with a 5% damping during tapping mode measurement. AFM adhesion measurements were performed on a JPK Nanowizard™ III mounted on Olympus® IX-81 inverted optical microscope. A mica sheet was glued one day before the experiment with double component epoxy glue to a glass slide and enclosed in a plastic o-ring provided by the JPK company for liquid measurements. Each peptide was dissolved in MilliQ® water at a concentration of 13 mM and mixed gently. Starting with the measurement in MilliQ® water, 50 μL of the solution were dropped on the freshly cleaved mica sheet within 5 minutes from the preparation of the solution and let equilibrate for 10 minutes. After, the excess solution was removed by pipetting and discarded. Then 1 mL of MilliQ® water was added gently from the side and after 5 minutes, the sample was rinsed 3 times by additional 1 mL MilliQ® water. Finally, the sample was measured by AFM force spectroscopy (Quantitative imaging mode) with additional 1 mL MilliQ® water. The MilliQ® water was exchanged after the measurement alternatively with a water solution containing 137 mM NaCl or 10 mM Phosphate ions (a combination of Na2HPO4·7H2O and NaH2PO4·H2O to reach pH 7.4). After performing the force spectroscopy map in these two different solutions, eventually, the liquid was exchanged with 1×PBS pH 7.4. […]

| SMILES | biocompatibility with C2C12 cells [1] | cell viability / toxicity [1] | metabolic activity of cells versus 2D cultures [1] | time cells stay metabolically active in nanogel [1] | Force of adhesion (Geometric Mean) ([2]; 10 mM PO4, peptide 13 mM) [PN] | Force of adhesion (Geometric Mean) ([2]; 137 mM NaCl, peptide 13 mM) [PN] | Force of adhesion (Geometric Mean) ([2]; 1×PBS, peptide 13 mM) [PN] | Force of adhesion (Geometric Mean) ([2]; MilliQ water, peptide 13 mM) [PN] | reduction of adhesion force by addition of NaCl [2] |
| --- | --- | --- | --- | --- | --- | --- | --- | --- | --- |
| CC[C@H](C)[C@H](NC(=O)[C@H](Cc1ccc(O)c(O)c1)NC(C)=O)C(=O)N[C@H](C(=O)N[C@@H](CC1CCCCC1)C(=O)N[C@@H](CCCCN)C(N)=O)[C@@H](C)CC [DoIIZK, Ac-Dopa-Ile-Ile-Cha-Lys-NH2] (Ac-[Dopa]II[Cha]K-NH2) | biocompatible | good viability | consistently comparable to 2D cultures | metabolically active for up to day 21 | 34.81 | 64.64 | 13.36 | 112.7 | about 50% |
| CC[C@H](C)[C@H](NC(C)=O)C(=O)N[C@H](C(=O)N[C@@H](CC1CCCCC1)C(=O)N[C@@H](Cc1ccc(O)c(O)c1)C(=O)N[C@@H](CCCCN)C(N)=O)[C@@H](C)CC [IIZDoK, Ac-Ile-Ile-Cha-Dopa-Lys-NH2] (Ac-II[Cha][Dopa]K-NH2) | biocompatible | good viability | consistently comparable to 2D cultures | metabolically active for up to day 21 | 22.47 | 44.01 | 23.33 | 72 | about 50% |
| CC[C@H](C)[C@H](NC(C)=O)C(=O)N[C@H](C(=O)N[C@@H](CC1CCCCC1)C(=O)N[C@@H](CCCCN)C(=O)N[C@@H](Cc1ccc(O)c(O)c1)C(N)=O)[C@@H](C)CC [IIZKDo, Ac-Ile-Ile-Cha-Lys-Dopa-NH2] (Ac-II[Cha]K[Dopa]-NH2) | biocompatible | good viability | consistently comparable to 2D cultures | metabolically active for up to day 21 | 13.89 | 76.89 | 29.5645 | 73.31 | did not significantly impact |
